Measurements: patent publication US20230295200A1 (REGENTS OF THE UNIVERSITY OF MICHIGAN, priority 2022, published 2023)
pKi: −log10 of the molar value.

Columns and labels:
STAT6 protein = target: T1, STAT6 protein (Homo sapiens, UniProt P42226); test: Fluorescence polarization (FP) binding assay, STAT6; conditions: FP competition, 5 nM fluorescein-labeled tracer, 200 nM protein, PBS pH7.4; read-out: Binding STAT6
T1 sequence (P42226 1-847): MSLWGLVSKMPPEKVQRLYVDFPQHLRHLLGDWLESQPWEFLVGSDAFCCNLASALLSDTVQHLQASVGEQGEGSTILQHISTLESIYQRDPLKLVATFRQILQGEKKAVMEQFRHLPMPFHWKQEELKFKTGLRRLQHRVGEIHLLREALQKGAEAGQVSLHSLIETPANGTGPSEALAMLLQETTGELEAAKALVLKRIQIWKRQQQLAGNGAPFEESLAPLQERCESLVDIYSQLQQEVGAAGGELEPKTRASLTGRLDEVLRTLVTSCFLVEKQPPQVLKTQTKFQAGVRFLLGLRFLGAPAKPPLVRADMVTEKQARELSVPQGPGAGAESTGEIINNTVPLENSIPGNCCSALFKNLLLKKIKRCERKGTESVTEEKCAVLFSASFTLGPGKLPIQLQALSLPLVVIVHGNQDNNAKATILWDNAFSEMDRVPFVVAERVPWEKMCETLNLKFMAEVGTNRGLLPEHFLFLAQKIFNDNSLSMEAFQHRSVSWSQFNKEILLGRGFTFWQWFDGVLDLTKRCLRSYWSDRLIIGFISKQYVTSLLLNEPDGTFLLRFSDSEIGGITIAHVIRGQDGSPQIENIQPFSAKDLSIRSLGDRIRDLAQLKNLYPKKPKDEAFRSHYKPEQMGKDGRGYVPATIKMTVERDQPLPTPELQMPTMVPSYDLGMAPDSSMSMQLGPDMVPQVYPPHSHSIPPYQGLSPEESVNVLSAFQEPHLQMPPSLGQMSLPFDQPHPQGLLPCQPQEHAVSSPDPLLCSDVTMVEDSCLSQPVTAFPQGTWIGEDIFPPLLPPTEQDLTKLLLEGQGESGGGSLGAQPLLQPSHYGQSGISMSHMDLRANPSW
Method in brief: (§1)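 Fluorescein-labelled tracer (5 nM) with 200 nM STAT5 and/or STAT6 protein in PBS pH 7.4, 0.01% BGG, 0.01% Tween-20, 2 mM DTT. Mixed 15 min, then equilibrated 1 h at room temperature; read by fluorescence polarization, constants from nonlinear curve fitting.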

STAT5A = target: T2, STAT5A (Homo sapiens, UniProt P42229); test: Fluorescence polarization (FP) binding assay, STAT5A; conditions: FP competition, 5 nM fluorescein-labeled tracer, 200 nM protein, PBS pH7.4
T2 sequence (P42229 1-794): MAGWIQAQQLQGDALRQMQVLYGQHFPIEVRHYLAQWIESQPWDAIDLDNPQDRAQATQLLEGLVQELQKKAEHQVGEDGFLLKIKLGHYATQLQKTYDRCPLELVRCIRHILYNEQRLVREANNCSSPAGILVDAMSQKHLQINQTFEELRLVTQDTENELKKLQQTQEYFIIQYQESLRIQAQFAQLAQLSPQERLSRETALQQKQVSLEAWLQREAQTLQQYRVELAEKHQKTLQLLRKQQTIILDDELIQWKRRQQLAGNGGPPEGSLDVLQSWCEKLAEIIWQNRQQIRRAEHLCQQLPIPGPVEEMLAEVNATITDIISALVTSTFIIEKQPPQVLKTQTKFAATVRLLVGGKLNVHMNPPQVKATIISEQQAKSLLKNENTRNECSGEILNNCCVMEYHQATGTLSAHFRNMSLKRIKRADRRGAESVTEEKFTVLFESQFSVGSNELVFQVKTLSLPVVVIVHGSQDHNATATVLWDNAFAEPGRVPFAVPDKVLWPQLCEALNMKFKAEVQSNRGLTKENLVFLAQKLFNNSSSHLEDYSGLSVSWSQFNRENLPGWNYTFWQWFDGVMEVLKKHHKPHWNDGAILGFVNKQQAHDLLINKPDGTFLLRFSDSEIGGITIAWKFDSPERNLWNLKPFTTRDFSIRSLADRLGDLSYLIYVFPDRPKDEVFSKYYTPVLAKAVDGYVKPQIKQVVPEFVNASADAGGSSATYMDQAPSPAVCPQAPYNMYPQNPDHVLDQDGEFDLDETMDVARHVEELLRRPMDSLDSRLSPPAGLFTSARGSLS
Method in brief: as §1

SMILES	pKi (STAT6 protein)	pKi (STAT5A)
CC(=O)N1CC[C@H]2CC[C@@H](C(=O)N(C)C(c3ccccc3)c3ccccc3)N2C(=O)[C@@H](NC(=O)c2cc3cc(C(F)(F)P(=O)(O)O)ccc3[nH]2)C1 [Compound 7, ((2-(((5S,8S,10aR)-3-acetyl-8-(benzhydryl(methyl)carbamoyl)-6-oxodecahydropyrrolo[1,2-a][1,5]diazocin-5-yl)carbamoyl)-1H-indol-5-yl)difluoromethyl)phosphonic acid]	5.00 to 6.00	< 5.00
NCCCC[C@H](NC(=O)/C=C/c1ccc(C(F)(F)P(=O)(O)O)cc1)C(=O)N1CCC[C@H]1C(=O)N1CCc2ccccc2C1 [Compound 8, ((4-((E)-3-(((S)-6-amino-1-oxo-1-((S)-2-(1,2,3,4-tetrahydroisoquinoline-2-carbonyl)pyrrolidin-1-yl)hexan-2-yl)amino)-3-oxoprop-1-en-1-yl)phenyl)difluoromethyl)phosphonic acid]	< 5.00	< 5.00
NCCCC[C@H](NC(=O)c1cc2cc(C(F)(F)P(=O)(O)O)ccc2[nH]1)C(=O)N1CCC[C@H]1C(=O)N1CCc2ccccc2C1 [Compound 9, ((2-(((S)-6-amino-1-oxo-1-((S)-2-(1,2,3,4-tetrahydroisoquinoline-2-carbonyl)pyrrolidin-1-yl)hexan-2-yl)carbamoyl)-1H-indol-5-yl)difluoromethyl)phosphonic acid]	5.00 to 6.00	< 5.00
CC(C)(C)[C@H](NC(=O)c1cc2cc(C(F)(F)P(=O)(O)O)ccc2[nH]1)C(=O)N1CCC[C@H]1C(=O)N[C@@H]1CCCc2ccccc21 [Compound 10, ((2-(((S)-3,3-dimethyl-1-oxo-1-((S)-2-(((R)-1,2,3,4-tetrahydronaphthalen-1-yl)carbamoyl)pyrrolidin-1-yl)butan-2-yl)carbamoyl)-1H-indol-5-yl)difluoromethyl)phosphonic acid]	5.00 to 6.00	< 5.00
CC(C)(C)[C@H](NC(=O)c1cc2cc(C(F)(F)P(=O)(O)O)ccc2[nH]1)C(=O)N1CCC[C@H]1C(=O)N[C@H]1CCCc2ccccc21 [Compound 11, ((2-(((S)-3,3-dimethyl-1-oxo-1-((S)-2-(((S)-1,2,3,4-tetrahydronaphthalen-1-yl)carbamoyl)pyrrolidin-1-yl)butan-2-yl)carbamoyl)-1H-indol-5-yl)difluoromethyl)phosphonic acid]	5.00 to 6.00	< 5.00
CC(C)(C)[C@H](NC(=O)c1cc2cc(C(F)(F)P(=O)(O)O)ccc2[nH]1)C(=O)N1CCC[C@H]1C(=O)NC1CCc2ccccc21 (stereo partly drawn) [Compound 12, ((2-(((2S)-1-((2S)-2-((2,3-dihydro-1H-inden-1-yl)carbamoyl)pyrrolidin-1-yl)-3,3-dimethyl-1-oxobutan-2-yl)carbamoyl)-1H-indol-5-yl)difluoromethyl)phosphonic acid]	5.00 to 6.00	< 5.00
CC(C)(C)[C@H](NC(=O)c1cc2cc(C(F)(F)P(=O)(O)O)ccc2[nH]1)C(=O)N1CCC[C@H]1C(=O)N1CCN(c2ccccc2)CC1 [Compound 13, ((2-(((S)-3,3-dimethyl-1-oxo-1-((S)-2-(4-phenylpiperazine-1-carbonyl)pyrrolidin-1-yl)butan-2-yl)carbamoyl)-1H-indol-5-yl)difluoromethyl)phosphonic acid]	5.00 to 6.00	< 5.00
CC(C)(C)[C@H](NC(=O)c1cc2cc(C(F)(F)P(=O)(O)O)ccc2[nH]1)C(=O)N1CCC[C@H]1C(=O)NC(c1ccccc1)c1ccccc1 [Compound 14, ((2-(((S)-1-((S)-2-(benzhydrylcarbamoyl)pyrrolidin-1-yl)-3,3-dimethyl-1-oxobutan-2-yl)carbamoyl)-1H-indol-5-yl)difluoromethyl)phosphonic acid]	5.00 to 6.00	< 5.00
CC(C)(C)[C@H](NC(=O)c1cc2cc(C(F)(F)P(=O)(O)O)ccc2[nH]1)C(=O)N1CCC[C@H]1C(=O)Nc1ccc2ccccc2c1 [Compound 15, ((2-(((S)-3,3-dimethyl-1-((S)-2-(naphthalen-2-ylcarbamoyl)pyrrolidin-1-yl)-1-oxobutan-2-yl)carbamoyl)-1H-indol-5-yl)difluoromethyl)phosphonic acid]	5.00 to 6.00	5.00 to 6.00
CC(C)(C)[C@H](NC(=O)c1cc2cc(C(F)(F)P(=O)(O)O)ccc2[nH]1)C(=O)N1CCC[C@H]1C(=O)N[C@@H]1C[C@H]1c1ccccc1 [Compound 16, ((2-(((S)-3,3-dimethyl-1-oxo-1-((S)-2-(((1R,2S)-2-phenylcyclopropyl)carbamoyl)pyrrolidin-1-yl)butan-2-yl)carbamoyl)-1H-indol-5-yl)difluoromethyl)phosphonic acid]	5.00 to 6.00	< 5.00
CC(C)(C)[C@H](NC(=O)c1cc2cc(C(F)(F)P(=O)(O)O)ccc2[nH]1)C(=O)N1CCC[C@H]1c1nc(Cc2ccccc2)cs1 [Compound 17, ((2-(((S)-1-((S)-2-(4-benzylthiazol-2-yl)pyrrolidin-1-yl)-3,3-dimethyl-1-oxobutan-2-yl)carbamoyl)-1H-indol-5-yl)difluoromethyl)phosphonic acid]	5.00 to 6.00	5.00 to 6.00
CC(C)(C)[C@H](NC(=O)/C=C/c1ccc(C(F)(F)P(=O)(O)O)cc1)C(=O)N1CCC[C@H]1c1nc(Cc2ccccc2)cs1 [Compound 18, ((4-((E)-3-(((S)-1-((S)-2-(4-benzylthiazol-2-yl)pyrrolidin-1-yl)-3,3-dimethyl-1-oxobutan-2-yl)amino)-3-oxoprop-1-en-1-yl)phenyl)difluoromethyl)phosphonic acid]	< 5.00	< 5.00
CC(C)(C)[C@H](NC(=O)c1cc2cc(C(F)(F)P(=O)(O)O)ccc2[nH]1)C(=O)N1CCC[C@H]1c1nc(-c2ccccc2)cs1 [Compound 19, ((2-(((S)-3,3-dimethyl-1-oxo-1-((S)-2-(4-phenylthiazol-2-yl)pyrrolidin-1-yl)butan-2-yl)carbamoyl)-1H-indol-5-yl)difluoromethyl)phosphonic acid]	5.00 to 6.00	< 5.00
CC(C)(C)[C@H](NC(=O)/C=C/c1ccc(C(F)(F)P(=O)(O)O)cc1)C(=O)N1CCC[C@H]1c1nc(-c2ccccc2)cs1 [Compound 20, ((4-((E)-3-(((S)-3,3-dimethyl-1-oxo-1-((S)-2-(4-phenylthiazol-2-yl)pyrrolidin-1-yl)butan-2-yl)amino)-3-oxoprop-1-en-1-yl)phenyl)difluoromethyl)phosphonic acid]	< 5.00	< 5.00
CC(C)(C)[C@H](NC(=O)c1cc2cc(C(F)(F)P(=O)(O)O)ccc2[nH]1)C(=O)N1CCC[C@H]1c1ncc(-c2ccccc2)s1 [Compound 21, ((2-(((S)-3,3-dimethyl-1-oxo-1-((S)-2-(5-phenylthiazol-2-yl)pyrrolidin-1-yl)butan-2-yl)carbamoyl)-1H-indol-5-yl)difluoromethyl)phosphonic acid]	5.00 to 6.00	< 5.00
CC(C)(C)[C@H](NC(=O)/C=C/c1ccc(C(F)(F)P(=O)(O)O)cc1)C(=O)N1CCC[C@H]1c1ncc(-c2ccccc2)s1 [Compound 22, ((4-((E)-3-(((S)-3,3-dimethyl-1-oxo-1-((S)-2-(5-phenylthiazol-2-yl)pyrrolidin-1-yl)butan-2-yl)amino)-3-oxoprop-1-en-1-yl)phenyl)difluoromethyl)phosphonic acid]	< 5.00	< 5.00
